Values joined by “and” are separate entries in the source; they are usually repeats but may differ in a detail not shown here. Equal entries are not always repeated.
Assays:
[1] = test system: patients with progressive MS (pMS); assay: Prospective observational 12-month study of pMS patients with newly introduced MD1003 (pMS-b cohort): T25FW, Po and falls at M0 and M6; assay type: in vivo, human; conditions: for mean change in Po / mean change in TW25F: M6 vs M0
Experimental: We perform a prospective observational study to evaluate a measure of a surrogate of ankle push-off moment power (Po) as a biomarker of evolution in pMS patients with stable treatment and pMS patients with newly introduced MD1003 (high-dose biotin). Po is measured during a 10m-walk with U-turn and back, using an IMU attached to each foot. The objective is to assess whether the dynamic measure of Po at 6-month interval reflects the response to treatment (assessed using the change in the timed 25-foot walk or the Expanded Disease Status Scale) and the change in fall risk within 6 months.
Second, the inventors aim at measuring how this variation in Po impact evolution of fall risk in this group of pMS patients. […] The T25FW, Po and risk of falls was assessed every 6 months using a simple validated protocol and the evolution of Po and the risk of falls were compared for each individual according to their response to treatment.
Patients—Thirty-three patients with progressive MS (pMS) and 20 gender and age-matched healthy subjects (HS) were enrolled in this longitudinal prospective study (table 1). pMS were recruited consecutively from the outpatient clinic of Percy Hospital (Clamart, France) between December 2017 and April 2018. The inclusion criteria for participation in the pMS cohorts required participants to be at least 18 years old, be diagnosed with primary progressive or secondary progressive multiple sclerosis according to the 2010 International Panel criteria, be capable of walking 20 m with U-turn, be free of any other conditions that affect gait. The exclusion criteria was pregnancy and high-dose biotin intake before M0. From the pMS cohort, the inventors isolated a subgroup, named pMS-b cohort, built with patients who were treated with high-dose biotin (MD1003 100 mg, three times a day) for at least one year after inclusion. For participating in the pMS-b cohort, additional inclusion criteria were those of the cohort Temporary Use Authorisation (TUAc) of MD1003—they had to have been free of any relapse for at least one year and sign the consent to enter the TUA cohort. The other patients were included in a group named pMS-nb. Exclusion criteria from this pMS-nb cohort were the presence of drug intake modification for the six-months prior to inclusions or during the twelve-month follow-up. HS participants were recruited from the hospital and research unit staff between December 2017 and April 2018. The inclusion criteria for participation in the HS cohort included: no report of falls in the past 5 years before inclusion, no disease that could affect their walk. Seventeen patients were included in the pMS-b cohort and 16 in the pMS-nb cohort. All participants gave their written consent to participate in the study. The study protocol was conducted according to the Helsinki principles and approved by Ethic Comity “Protection des Personnes Nord Ouest III” under the ID RCB: 2017-A01538-45.
Measures—Gait was measured using four 3-dimensional accelerometers (Mtw XSens®, 100 Hz sampling frequency) positioned on the head, lower back (L4-L5 vertebrae) and dorsal part of both feet. Participants performed two walks of 20 m with U-turn (10 m way in and 10 m way out). One trial per visit only was used in this study, as the second trial was done with specific conditions for the sake of a reproducibility test in a previous study. A limit at 7.62 m was drawn for the assessor to timeclock the T25FW during the first way-in. Disease severity was assessed using patient-reported outcomes (the Multiple Sclerosis Walking Scale-12—MSWS—and the Fatigue Impact Scale—FIS) together with clinical evaluation (Expanded Disease Severity Scale [10]-EDSS—and Computerized Speed Cognitive Test [11]—CSCT) and the 25-foot walking test administered according to a validated standardized protocol. […]

[2] = test system: progressive multiple sclerosis; conditions: cited from earlier work
[3] = pMS-b (n = 17), T25FW at M6 vs M0

## O=C(O)CCCC[C@@H]1SC[C@@H]2NC(=O)N[C@@H]21 [MD1003, biotin]
[1]; our cohort (pMS-b)
  response to treatment as defined by a 20% decrease in TW25F: 13%
[1]; pMS-b (n = 17), MD1003 100 mg three times a day, T25FW at M6 vs M0
  complete responder (≥20% decrease), number of patients: 3/17 and 3
[1]; [3]
  complete progressor (≥20% increase), number of patients: 5
  complete progressor (≥20% increase), percent of patients: (29%)
  non responder (−10-10% decrease), number of patients: 5
  non responder (−10-10% decrease), percent of patients: (29%)
  partial progressor (10-20% increase), number of patients: 2
  partial progressor (10-20% increase), percent of patients: (12%)
  partial responder (10-20% decrease), number of patients: 2
  partial responder (10-20% decrease), percent of patients: (12%)
[1]; pMS-b cohort
  participants who decreased their number of falls among the three with Po decreased by more than 20%: Two
  significant change of Po after beginning of MD1003: nearly half the cohort
[1]; pMS-b cohort, summary of results, M0 to M6
  responders (response to treatment by change in timed 25-foot walk or EDSS): 2/17
[1]; pMS-b cohort, M0 to M6
  participants who decreased their Po by more than 20%: Three
[1]; pMS-b complete progressors
  mean change in Po: −0.36
  mean change in TW25F: 1.39
[1]; pMS-b complete responders
  mean change in Po: 0.33
  mean change in TW25F: −0.26
[1]; pMS-b group
  number of falls in the following 6 months in the 4 patients with significant increase (higher than 20%) in Po: equal or lower number of falls
[1]; pMS-b group, 17 patients, M0 to M6
  patients showing an increase in Po of more than 20%: 4
[1]; pMS-b group, out of the 17 patients, M0 to M6
  patients who increased their Po: 8
[1]; pMS-b group, M0-M6 vs M6-M12
  patients who did not fall during the first 6-month period and began falling during the second 6-month period: 3
  patients who fell during the first 6-month period and stopped falling during the second 6-month period: 1
[1]; pMS-b non responders
  mean change in Po: −0.02
  mean change in TW25F: 0.00
[1]; pMS-b partial progressors
  mean change in Po: 0.05
  mean change in TW25F: 0.17
[1]; pMS-b partial responders
  mean change in Po: 0.14
  mean change in TW25F: −0.17
[1]; small sample of pMS patients
  effect on locomotion: improved the locomotion in a subset pMS patients
[2]; cohort of the phase 3 clinical trial [14]
  response to treatment as defined by a 20% decrease in TW25F: 8.7%
[2]; recently demonstrated efficacy of MD1003
  patients in whom the T25FW time decreased by 20%: 10%
